# Values joined by “and” are separate entries in the source; they are usually repeats but may differ in a detail not shown here. Identical values can stand only once.
# Target: T1, Nox2 (Homo sapiens, UniProt P04839)
# T1 construct: expressed in transfected cells
# T1 sequence (P04839 2-570 limits assumed): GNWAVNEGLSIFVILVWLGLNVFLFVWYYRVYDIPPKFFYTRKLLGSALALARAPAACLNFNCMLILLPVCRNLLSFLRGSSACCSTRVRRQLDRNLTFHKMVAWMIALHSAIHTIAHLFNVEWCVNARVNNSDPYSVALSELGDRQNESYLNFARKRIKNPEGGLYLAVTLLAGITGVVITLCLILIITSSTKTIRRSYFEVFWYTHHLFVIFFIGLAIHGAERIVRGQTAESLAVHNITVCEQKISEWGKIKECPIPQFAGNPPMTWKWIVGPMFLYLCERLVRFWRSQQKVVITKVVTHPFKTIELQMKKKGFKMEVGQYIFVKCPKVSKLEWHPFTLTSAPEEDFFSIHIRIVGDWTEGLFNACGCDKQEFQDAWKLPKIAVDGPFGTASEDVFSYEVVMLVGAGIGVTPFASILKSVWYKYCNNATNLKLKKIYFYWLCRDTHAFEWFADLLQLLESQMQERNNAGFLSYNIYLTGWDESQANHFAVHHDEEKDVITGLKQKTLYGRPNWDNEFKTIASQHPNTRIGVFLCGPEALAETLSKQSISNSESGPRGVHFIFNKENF
# Test: ROS (superoxide) generation in whole COS-Nox2 cells, L-012 chemiluminescence
# Type: cell-based
# Conditions: for Activity in primary library screen: screened at 100, 50, 25, and 12.5 μM, COS-Nox2 cells; for IC50: whole COS-Nox2 cells stimulated with 5 μM PMA
# Excerpt: All cell culture reagents were obtained from Invitrogen, unless indicated. COS-22 (COS-7 cells stably expressing human p22^phox) and COS-Nox2 (a.k.a. COS-phox) cells (COS-7 cells stably expressing human p22^phox, Nox2, p47^phox and p67^phox) were kindly provided by Dr. Mary C. Dinauer (Indiana University, School of Medicine) (Price et al., Blood, 2002, 99:2653-2661). COS-22 cells were maintained in Dulbecco's Modified Eagle Medium (DMEM) with 4.5 g/L glucose, L-glutamine and sodium pyruvate containing 10% heat-inactivated fetal bovine serum (FBS), 100 units/ml penicillin and 100 μg/ml streptomycin (complete media) supplemented with 1.8 mg/ml G418 (Calbiochem/EMB Bioscience, Gibbstown, N.J.). COS-Nox2 cells were maintained in complete media supplemented with 1.8 mg/mL G418, 1 μg/mL puromycin (Sigma, St Louis, Mo.) and 0.2 mg/mL hygromycin B (Invitrogen, Carlsbad, Calif.). HEK-Nox5 cells were kindly provided by Dr. David Fulton (Georgia Health Sciences University) and maintained in complete media.
# COS-Nox2, COS-Nox1/NOXO1/NOXA1, HEK-Nox5 and COS-22 cells were re-plated in OPTIMEM into 384-well white micro-plates (Greiner-Bio One GmbH, Germany) at a density of 2.5×10^3 cells/well for COS-Nox2 and 5×10^4 cells/well for all others. The cells were incubated at 37° C. in PBS containing […] L-012 for 10 min. Reaction was initiated by addition of 5 μM PMA in the case of Nox2 or 1 μM PMA/0.1 μM Ionomycin in the case of Nox5. Since Nox1 was constitutively active, Nox1-derived O2^•− was assessed by comparison to non-transfected cells (Cos22). Luminescence was quantified over time using a Biotek Synergy 4 Hybrid Multi-Mode Microplate Reader. The specificity of L-012 for O2^•− was confirmed by the addition of SOD (150 U/mL).
# All data are expressed as means±SEM. IC50 values were determined using the GraphPad Prism software (GraphPad Software, San Diego, Calif.) for non-linear regression three-parameters, with constrain values of 100 and 0 for top and bottom, respectively, and assumes a Hill slope of 1.
# Heterologous Nox1, 2, 4, and 5 cell systems were used as a testing paradigm to identify a probe molecule that inhibits Nox2 selectively over Nox1, 4, and 5. An acceptable probe would also show a lack of activity against XO, which also produces ROS. The latter screen would serve two purposes: (1) to eliminate drugs that inhibit an oxidase of distinct composition; and (2) to preclude agents that directly scavenge ROS. A cell-based primary assay using stable Nox2-transfected COS cells (Price et al., Blood 2002, 99:2653-2661) with L-012 chemiluminescence (Daiber et al., Free Radic. Biol. Med. 2004, 36:101-111) was used as a detection system for O2^•−-generation.
SMILES,Activity in primary library screen,IC50
"C=C(C)CC1NC2CC(C)(C)C1c1c(Br)cccc12 (racemic) [Compound 7, (±)-(1S,4R,9S)-5-Bromo-3,3-dimethyl-9-(2-methylallyl)-1,2,3,4-tetrahydro-1,4-(epimino-methano)-naphthalene]",hit,45 µM and 46 µM
"C=C(C)CC1NC2CC(C)(C)C1c1ccccc12 (racemic) [Compound 8, (±)-(1S,4R,9S)-3,3-Dimethyl-9-(2-methylallyl)-1,2,3,4-tetrahydro-1,4-(epiminomethano)-naphthalene]",,> 100 µM
"C=C(C)CC1C2c3ccccc3C(CC2(C)C)N1Cc1cccc(F)c1 (racemic) [Compound 11a, (±)-(1S,4R,9S)-10-(3-Fluorobenzyl)-3,3-dimethyl-9-(2-methylallyl)-1,2,3,4-tetrahydro-1,4-(epiminomethano)naphthalene]",,68 ± 33 µM
"C=C(C)CC1C2c3c(Br)cccc3C(CC2(C)C)N1Cc1ccnc2ccccc12 (racemic) [Compound 11b, (±)-(1S,4R,9S)-5-Bromo-3,3-dimethyl-9-(2-methylallyl)-10-(quinolin-4-ylmethyl)-1,2,3,4-tetra-hydro-1,4-(epiminomethano)naphthalene]",,> 100 µM
"C=C(C)CC1C2c3c(Br)cccc3C(CC2(C)C)N1Cc1c[nH]c2ccccc12 (racemic) [Compound 11c, (±)-(1S,4R,9S)-10-((1H-Indol-3-yl)methyl)-5-bromo-3,3-dimethyl-9-(2-methylallyl)-1,2,3,4-tetrahydro-1,4-(epiminomethano)naphthalene]",,> 100 µM
"C=C(C)CC1C2c3c(Br)cccc3C(CC2(C)C)N1Cc1ccc2c(c1)OCO2 (racemic) [Compound 11d, (±)-(1S,4R,9S)-10-(Benzo[d][1,3]dioxol-5-ylmethyl)-5-bromo-3,3-dimethyl-9-(2-methylallyl)-1,2,3,4-tetrahydro-1,4-(epiminomethano)naphthalene]",,88 ± 22 µM
"C=C(C)CC1C2c3c(Br)cccc3C(CC2(C)C)N1Cc1cc(C)on1 (racemic) [Compound 11e, (±)-3-(1S,4R,9S)-5-Bromo-3,3-dimethyl-9-(2-methylallyl)-1,2,3,4-tetrahydro-1,4-(epimino-methano) naphthalen-10-yl)methyl)-5-methylisoxazole]",,48 ± 23 µM
"C=C(C)CC1C2c3c(Br)cccc3C(CC2(C)C)N1Cc1cccc(F)c1 (racemic) [Compound 11f, (±)-(1S,4R,9S)-5-Bromo-10-(3-fluorobenzyl)-3,3-dimethyl-9-(2-methylallyl)-1,2,3,4-tetrahydro-1,4-(epiminomethano)naphthalene]",,68 ± 22 µM
"C=C(C)CC1C2c3c(Br)cccc3C(CC2(C)C)N1CCCCC (racemic) [Compound 11g, (±)-(1S,4R,9S)-5-Bromo-3,3-dimethyl-9-(2-methylallyl-10-pentyl-1,2,3,4-tetrahydro-1,4-(epiminomethano)naphthalene]",,20 ± 4.9 µM
"C=C(C)CC1C2c3c(Br)cccc3C(CC2(C)C)N1Cc1cccs1 (racemic) [Compound 11h, (±)-(1S,4R,9S)-5-Bromo-3,3-dimethyl-9-(2-methylallyl)-10-(thiophen-2-ylmethyl)-1,2,3,4-tetrahydro-1,4-(epiminomethano)naphthalene]",,38 ± 11 µM
"C=C(C)CC1NC2CC(C)(C)C1c1c(-c3ccc(Cl)c(Cl)c3)cccc12 (racemic) [Compound 12a, (±)-(1S,4R,9S)-5-(3,4-Dichlorophenyl)-3,3-dimethyl-9-(2-methylallyl)-1,2,3,4-tetrahydro-1,4-(epiminomethano)naphthalene]",,9 ± 0.9 µM
"C=C(C)CC1C2c3c(-c4ccc(Cl)c(Cl)c4)cccc3C(CC2(C)C)N1Cc1ccc2c(c1)OCO2 (racemic) [Compound 12b, (±)-(1S,4R,9S)-10-(Benzo[d][1,3]dioxol-5-ylmethyl)-5-(3,4-dichlorophenyl)-3,3-dimethyl-9-(2-methylallyl)-1,2,3,4-tetrahydro-1,4-(epiminomethano)-naphthalene]",,> 100 µM
C=C(C)CC1C2c3c(-c4ccc(Cl)c(Cl)c4)cccc3C(CC2(C)C)N1CCCCC (racemic) [Compound 12c],,> 100 µM
CC(C)CC1NC2CC(C)(C)C1c1c(Br)cccc12 (racemic) [Compound 13],,31 ± 3.8 µM
"C=C(C)CC1C2c3c(Br)cccc3C(CC2(C)C)N1S(C)(=O)=O (racemic) [Compound 14a, (±)-(1S,4R,9S)-5-Bromo-3,3-dimethyl-9-(2-methylallyl)-10-(methylsulfonyl)-1,2,3,4-tetrahydro-1,4-(epiminomethano)naphthalene]",,> 100 µM
"C=C(C)CC1C2c3c(Br)cccc3C(CC2(C)C)N1S(=O)(=O)c1ccc(F)cc1 (racemic) [Compound 14b, (±)-(1S,4R,9S)-5-Bromo-10-((4-fluorophenyl)sulfonyl)-3,3-dimethyl-9-(2-methylallyl)-1,2,3,4-tetrahydro-1,4-(epiminomethano)naphthalene]",,> 100 µM
C=C(C)C[C@@H]1N[C@H]2CC(C)(C)[C@@H]1c1c(Br)ccc(Br)c12 [Compound 9],active,40 ± 2.8 µM

# Reference: patent US10906876B2, “Tetrahydroisoquinolines as selective NADPH oxidase 2 inhibitors” (University of Pittsburgh—Of the Commonwealth System of …, priority 2013, dated 2021)
